Results on four compounds are retold here after article PMC6392429 (ACS infectious diseases, 2018).

Several values for one entry are separate records, joined by “and”; a condition that tells them apart may be missing. Equal entries are not always repeated. Where two headings read alike, the source gives them in different places.

Data set [1] deals with T1, DENV2 sE2 (Dengue virus type 2, UniProt P14340). Particulars: assay optimisation, Figure S1.
For data set [2], the system named is DENV2 NGC. In words: Viral infectivity assay. The format is cell-based, dengue virus serotype 2 New Guinea C. Particulars: negative control compound.
The target in data set [3] is T1, DENV2 sE2. As to conditions: biolayer interferometry. (In general: BLI is a label-free optical method that tracks binding on a fibre tip over time.)
For another data set, the system named is DENV3 THD3. In words: Plaque reduction assay, DENV3. Particulars: read-out: PRNT50 DENV3. The format is cell-based, dengue virus serotype 3.
A further data set concerns ZIKV PF-251013–18. As to the kind of experiment: Plaque reduction assay, ZIKV. Particulars: read-out: PRNT50 ZIKV.
The subject of another data set is DENV4 TVP360. As to the kind of experiment: Plaque reduction assay, DENV4. The format is cell-based, dengue virus serotype 4. As to conditions: read-out: PRNT50 DENV4.
The next data set concerns DENV1 WP74. In words: Plaque reduction assay, DENV1. The format is cell-based, dengue virus serotype 1. As to conditions: read-out: PRNT50 DENV1.
The nature of data set [4]: Dynamic light scattering, particle size. The format is physicochemical.
For data set [5], the system named is DENV2 NGC. In words: Plaque reduction assay, DENV2. As to conditions: read-out: PRNT50 DENV2. The format is cell-based, dengue virus serotype 2. Background: In a plaque reduction assay, fewer plaques than in the control indicate reduced infectivity or spread.
For another data set, the target named is AmpC β-lactamase (Escherichia coli, UniProt P00811).
AmpC β-lactamase, sequence (P00811 20-377): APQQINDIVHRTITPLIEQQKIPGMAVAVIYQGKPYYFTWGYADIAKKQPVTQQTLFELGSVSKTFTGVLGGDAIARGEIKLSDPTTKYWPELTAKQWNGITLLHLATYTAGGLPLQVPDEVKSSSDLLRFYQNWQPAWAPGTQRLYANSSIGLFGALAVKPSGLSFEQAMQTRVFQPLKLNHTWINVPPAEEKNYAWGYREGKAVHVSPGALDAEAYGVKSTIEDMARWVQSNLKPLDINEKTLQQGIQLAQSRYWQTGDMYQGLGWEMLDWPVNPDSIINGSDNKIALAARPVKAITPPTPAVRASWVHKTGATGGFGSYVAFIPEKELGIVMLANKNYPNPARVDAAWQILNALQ
Data set [6] has as its system E-mediated fusion of DENV2 virions with liposomes. Particulars: for Inhibition of E-mediated fusion: close to IC90.
The target in data set [7] is T2, malate dehydrogenase (MDH) (Sus scrofa, UniProt P00346).
T2 sequence (P00346 25-338): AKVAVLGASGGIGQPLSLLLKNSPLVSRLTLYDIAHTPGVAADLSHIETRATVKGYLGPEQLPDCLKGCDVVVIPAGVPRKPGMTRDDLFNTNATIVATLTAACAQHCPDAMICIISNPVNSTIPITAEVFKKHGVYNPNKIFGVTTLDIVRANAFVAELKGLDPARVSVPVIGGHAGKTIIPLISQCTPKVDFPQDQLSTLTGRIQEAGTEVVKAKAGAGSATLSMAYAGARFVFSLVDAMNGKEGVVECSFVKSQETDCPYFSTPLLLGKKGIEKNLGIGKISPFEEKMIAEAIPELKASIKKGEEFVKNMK
In words: Malate dehydrogenase. The format is biochemical.

The subject of the next data set is BHK-21 cells. The format is cell-based.
The nature of data set [8]: Microsome stability in vitro. The format is in vitro ADME. Particulars: mouse microsomes in vitro.
The subject of another data set is VSV-eGFP. The format is cell-based, vesicular stomatitis virus.
The mark [9] stands for this setting: read-out: IC50 AmpC no TritonX, no Triton X-100.
The mark [10] stands for this setting: read-out: IC50 AmpC with TritonX, with 0.01% Triton X-100.
The mark [11] stands for this setting: read-out: IC50 MDH no TritonX, no Triton X-100.
Setting [12] is: read-out: IC50 MDH with TritonX, with 0.01% Triton X-100.

`CN1CCN(c2ccc(Nc3cc(Oc4ccccc4)ncn3)cc2)CC1` [JW-068, N−[4-(4-Methylpiperazin-1-yl)phenyl]-6-phenoxypyrimidin-4-amine]: the “Competition with GNF2-biotin for binding to sE2” value on DENV2 sE2 [1] is “absence of competition”. In addition, in the data set with DENV2 NGC [2], the “Inhibition of DENV2 infection” value is on record as “does not inhibit DENV2 infection”.

One may read the Kd as the constant that tells how readily two partners part at equilibrium. Higher therefore signals a looser complex. As a reminder, the CC50 is the concentration at which the toxic effect on the cells reaches its halfway point. A high value points to better tolerance by the cells. On to `COc1cc(C(=O)NS(=O)(=O)c2ccccc2C)ccc1Cc1cn(C)c2ccc(NC(=O)OC3CCCC3)cc12` [S1633], for which the Kd at DENV2 sE2 [3] stood at 5200 ± 2100 nM. For the same compound, the IC50 is more than 10 µM in the data set on DENV3 THD3 (BHK-21 cells, scored); more than 10 µM in the data set on ZIKV PF-251013–18 (Vero cells, scored); 1000 to 10000 nM in the data set with DENV4 TVP360 (BHK-21 cells, scored); 1000 to 10000 nM in the data set with DENV1 WP74 (BHK-21 cells, scored); 1000 to 10000 nM in the data set on DENV2 NGC [5] (BHK-21 cells, scored); 36.6 µM on AmpC β-lactamase (setting [9]). Also, the IC50 at AmpC β-lactamase (setting [10]) was more than 100 µM; in data set [7] (setting [11]) it was 48.2 µM; in data set [7] (setting [12]), more than 100 µM. Further, the “Particle size at 40 μM with Tween20” value in [4] is 9.2 nm. Further, the “Particle size at 40 μM without Tween20” value in [4] was 823 nm. The “Inhibition of E-mediated fusion” value in data set [6] (10 μM) is reported as “inhibit E-mediated fusion”. Besides, half-maximal cytotoxicity with BHK-21 cells (CC50) was put at 50 ± 3 µM. For the same compound, the “T1/2 (Microsome stability)” value in data set [8] is 37.7 min.

With `Cc1cc(C(C#N)c2ccc(Cl)cc2)c(Cl)cc1NC(=O)c1cc(I)cc(I)c1O` (stereo not drawn) [S4105], the “Inhibition % vs. VSV-eGFP” value in the data set with VSV-eGFP is 64% and 60%. Moreover, at DENV2 sE2 [3], binding was characterised by a dissociation constant (Kd) of 900 ± 300 nM. Besides, the IC50 in the data set on DENV3 THD3 (BHK-21 cells, scored) is 1 to 10 µM; in the data set on DENV3 THD3 (bound stated), not above 10 µM; with ZIKV PF-251013–18 (Vero cells, scored), less than 1 µM; in the data set on ZIKV PF-251013–18 (bound stated), not above 1 µM; in the data set with DENV4 TVP360 (BHK-21 cells, scored), less than 1000 nM; in the data set with DENV4 TVP360 (bound stated) it was not above 1000 nM. The IC50 in the data set with DENV1 WP74 (BHK-21 cells, scored) is less than 1000 nM; in the data set on DENV1 WP74 (bound stated) it was not above 1000 nM; in the data set on DENV2 NGC [5] (BHK-21 cells, scored) it was less than 1000 nM; in the data set on DENV2 NGC [5] (bound stated), not above 1000 nM; on AmpC β-lactamase (setting [9]), 19.5 µM; at AmpC β-lactamase (setting [10]), more than 100 µM. Moreover, the results for the IC50 in data set [7] (setting [11]) and in data set [7] (setting [12]) were 0.3 µM and more than 100 µM, respectively. In addition, in data set [4], the “Particle size at 40 μM with Tween20” value is on record as 13.1 nm. In addition, the “Particle size at 40 μM without Tween20” value in data set [4] is listed as 82 nm. Also, the “Inhibition of viral fusion (protection of core from trypsin digestion)” value in data set [6] (at 5, 1, and 0.5 μM, Western blot) is “inhibit viral fusion in a concentration-dependent manner”. The compound also gave a CC50 in the data set with BHK-21 cells of 50 ± 15 µM. Besides, the “T1/2 (Microsome stability)” value in data set [8] was more than 120 min.

For the compound `CN(CC(=O)N(Cc1ccc(C2CCCCC2)cc1)c1ccc(C(=O)O)cc1)S(=O)(=O)c1c(F)c(F)c(F)c(F)c1F` [S7337], on DENV2 sE2 [3], the Kd came to 1300 ± 500 nM. Moreover, the IC50 with DENV3 THD3 (bound stated) is not above 10 µM; in the data set with ZIKV PF-251013–18 (Vero cells, scored) it was 1 to 10 µM; in the data set on ZIKV PF-251013–18 (bound stated) it was not above 10 µM; in the data set with DENV4 TVP360 (BHK-21 cells, scored), less than 1000 nM; in the data set on DENV4 TVP360 (bound stated), not above 1000 nM; in the data set with DENV1 WP74 (BHK-21 cells, scored), less than 1000 nM. Further, the IC50 in the data set on DENV1 WP74 (bound stated) is not above 1000 nM; with DENV2 NGC [5] (BHK-21 cells, scored), less than 1000 nM; with DENV2 NGC [5] (bound stated) it was not above 1000 nM; at AmpC β-lactamase (setting [9]) it was more than 100 µM; at AmpC β-lactamase (setting [10]) it was more than 100 µM; in data set [7] (setting [11]) it was 86.4 µM. Also, the IC50 in data set [7] (setting [12]) was more than 100 µM. Also, the “Particle size at 40 μM with Tween20” value in data set [4] is recorded as 8.2 nm. In data set [4], the “Particle size at 40 μM without Tween20” value is listed as 144 nm. Further, the “Inhibition of E-mediated fusion” value in data set [6] (3 μM) is listed as “inhibit E-mediated fusion”. Also, in the data set with BHK-21 cells, half-maximal cytotoxicity (CC50) was put at 13 ± 5 µM. In addition, in data set [8], the “T1/2 (Microsome stability)” value came to 3.2 min.
